One series can be described thus: Water solubility. The class given is physicochemical.
The next series deals with C. albicans. The series is described as follows: Antifungal agar well diffusion, zones of inhibition. The following applies: Candida albicans; 50 μg, 48 hours; read-out: zone of growth inhibition, standard. The class given is cell-based. On the procedure: (§1) Antifungal testing of these nanoparticles was performed by Kirby-Bauer disc diffusion on agar plates against eight genera of fungi.

Series [1] deals with C. lusitaniae (ATCC 34449). Described as above. The class given is cell-based. To be noted: Clavispora lusitaniae, ATCC34449; 50 μg, 48 hours; read-out: zone of growth inhibition, standard. On the procedure: as §1
In another series the test system is C. utilis (ATCC 29950). The description is as above. The class given is cell-based. To be noted: Williopsis jadinii, ATCC29950; 50 μg, 48 hours; read-out: zone of growth inhibition, standard. The procedure: as §1
A further series concerns C. tropicalis. Described as above. The series is classed as cell-based. To be noted: Candida tropicalis; 50 μg, 48 hours; read-out: zone of growth inhibition, standard.
The test system of a further series is C. glabrata (ATCC 15126). The series is described as above. The series is classed as cell-based. The following applies: Nakaseomyces glabratus, ATCC15126; 50 μg, 48 hours; read-out: zone of growth inhibition, standard.
The next series has as its system C. kefyr. The description is as above. The class given is cell-based. To be noted: Kluyveromyces marxianus; 50 μg, 48 hours; read-out: zone of growth inhibition, standard.
The test system of the next series is C. krusei (ATCC 14243). The description is as above. The series is classed as cell-based. The following applies: Pichia kudriavzevii, ATCC14243; 50 μg, 48 hours; read-out: zone of growth inhibition, standard.
In series [2] the test system is C. parapsilosis (ATCC 22019). The series is described as above. The class given is cell-based. To be noted: Lodderomyces parapsilosis, ATCC22019; 50 μg, 48 hours; read-out: zone of growth inhibition, standard.

The molecule `C=CC(=O)OC(C)OC(=O)c1c2ccccc2cc2ccccc12` (stereo not shown) returned a melting point of 66 to 68 °C.

For `C=CC(=O)C1C(=O)N(SC)C1c1ccccc1Cl` (racemic) [N-methylthiolated β-lactam, 3-acryloyl-N-methylthio-4-(2-chlorophenyl)-2-azetidinone], the water solubility entry in “Water solubility” was “water-insoluble”.

Take `Clc1ccccc1C(c1ccccc1)(c1ccccc1)n1ccnc1` [clotrimazole]: the zone of inhibition at 50 µg/disc in the series on C. albicans is 20 mm; in [1], 25 mm; with C. utilis (ATCC 29950) it was 24 mm; in the series on C. tropicalis, 20 mm; with C. glabrata (ATCC 15126), 14 mm; in the series with C. kefyr it was 37 mm. The values for the zone of inhibition at 50 µg/disc (in the series with C. krusei (ATCC 14243); in [2]) were 27 mm and 32 mm, respectively.

For the origin of these results see patent US9149440B2, “Nanoparticles for drug-delivery” (UNIVERSITY OF SOUTH FLORIDA, priority 2003, dated 2015).
